Data from ChEMBL document CHEMBL4342522 (J Med Chem, 2020).
pIC50, pKi: −log10 of the molar value. Values belong to the molecule of their own block, whether it stands above or below them. Calls of active or inactive are those of the source. The rule behind the calls is not given here.

Key:
[1] = Half life in rat at 1 mg/kg, iv; type: ADME, organism-based; details: in vivo
[2] = Half life in mouse at 1 mg/kg, po; type: ADME, organism-based; details: in vivo
[3] = Permeability in dog MDCK cells by PAMPA; type: ADME, cell-based, Canis lupus familiaris; details: read-out: permeability
[4] = Half life in monkey at 0.1 mg/kg, iv; type: ADME, organism-based, Macaca mulatta; details: rhesus monkey, in vivo
[5] = target: T1, Bromodomain-containing protein 4 (Homo sapiens, UniProt O60885); test: Inhibition of human N-terminal His6 tagged BRD4 BD2 (352 to 457) residues expressed in Escherichia coli BL21(DE3) cells after 1 hr by TR-FRET assay
[6] = Clearance in rat plasma at 1 mg/kg, iv; type: ADME, organism-based
[7] = Oral bioavailability in rat at 1 mg/kg; type: ADME, organism-based; details: in vivo
[8] = Unbound hepatic clearance in monkey liver microsomes; type: ADME, Macaca mulatta, Microsome; details: rhesus monkey
[9] = Unbound hepatic clearance in mouse liver microsomes; type: ADME, Microsome
[10] = Half life in rat at 1 mg/kg, po; type: ADME, organism-based; details: in vivo
[11] = Half life in dog at 0.1 mg/kg, iv; type: ADME, organism-based, Canis lupus familiaris; details: in vivo
[12] = Oral bioavailability in dog at 0.3 mg/kg; type: ADME, organism-based, Canis lupus familiaris; details: in vivo
[13] = Volume of distribution at steady state in rat at 1 mg/kg, iv; type: ADME, organism-based; details: in vivo, read-out: Vdss
[14] = Volume of distribution at steady state in monkey at 0.1 mg/kg, iv; type: ADME, organism-based, Macaca mulatta; details: rhesus monkey, in vivo, read-out: Vdss
[15] = AUC in monkey at 0.1 mg/kg, iv; type: ADME, organism-based, Macaca mulatta; details: rhesus monkey, in vivo
[16] = tested on: NCI-H1299; test: Antiproliferative activity against human H1299 cells assessed as reduction in cell viability after 5 days by CellTiter-Glo assay; type: functional, cell-based; details: NCI-H1299, 120 h
[17] = tested on: SKM-1; test: Antitumor activity against human SKM1 cells xenografted in SCID mouse assessed as tumor growth inhibition at 1 mg/kg, po qd for 21 days by caliper method; type: functional, organism-based
[18] = Clearance in monkey plasma at 0.1 mg/kg, iv; type: ADME, organism-based, Macaca mulatta; details: rhesus monkey
[19] = AUC in dog at 0.1 mg/kg, iv; type: ADME, organism-based, Canis lupus familiaris; details: in vivo
[20] = Unbound hepatic clearance in rat liver microsomes; type: ADME, Microsome
[21] = AUC in mouse at 1 mg/kg, iv; type: ADME, organism-based; details: in vivo
[22] = Half life in mouse at 1 mg/kg, iv; type: ADME, organism-based; details: in vivo
[23] = AUC in mouse at 1 mg/kg, po; type: ADME, organism-based; details: in vivo
[24] = Volume of distribution at steady state in dog at 0.1 mg/kg, iv; type: ADME, organism-based, Canis lupus familiaris; details: in vivo, read-out: Vdss
[25] = tested on: SKM-1; test: Antiproliferative activity against human SKM1 cells assessed as reduction in cell viability after 5 days by CellTiter-Glo assay; type: functional, cell-based; details: SKM-1, 120 h
[26] = Half life in dog at 0.3 mg/kg, po; type: ADME, organism-based, Canis lupus familiaris; details: in vivo
[27] = Unbound hepatic clearance in human liver microsomes; type: ADME, Microsome
[28] = Oral bioavailability in mouse at 1 mg/kg; type: ADME, organism-based; details: in vivo
[29] = target: T1, Bromodomain-containing protein 4; test: biochemical; type: cell-based
Description: Inhibition of human N-terminal His6 tagged BRD4 BD1 (57 to 168) residues expressed in Escherichia coli BL21(DE3) cells after 1 hr by TR-FRET assay

[30] = Clearance in mouse plasma at 1 mg/kg, iv; type: ADME, organism-based
[31] = Volume of distribution at steady state in mouse at 1 mg/kg, iv; type: ADME, organism-based; details: in vivo, read-out: Vdss
[32] = AUC in dog at 0.3 mg/kg, po; type: ADME, organism-based, Canis lupus familiaris; details: in vivo
[33] = AUC in rat at 1 mg/kg, iv; type: ADME, organism-based; details: in vivo
[34] = AUC in rat at 1 mg/kg, po; type: ADME, organism-based; details: in vivo
[35] = Oral bioavailability in monkey at 0.3 mg/kg; type: ADME, organism-based, Macaca mulatta; details: rhesus monkey, in vivo
[36] = Clearance in dog plasma at 0.1 mg/kg, iv; type: ADME, organism-based, Canis lupus familiaris
[37] = tested on: SKM-1; test: Antitumor activity against human SKM1 cells xenografted in SCID mouse assessed as tumor growth inhibition at 60 mg/kg, po bid by caliper method; type: functional, organism-based
[38] = Tmax in rat at 1 mg/kg, po; type: ADME, organism-based; details: in vivo
[39] = AUC in monkey at 0.3 mg/kg, po; type: ADME, organism-based, Macaca mulatta; details: rhesus monkey, in vivo
[40] = Tmax in monkey at 1 mg/kg, po; type: ADME, organism-based, Macaca mulatta; details: rhesus monkey, in vivo
[41] = Cmax in dog at 1 mg/kg, po; type: ADME, organism-based, Canis lupus familiaris; parameters: dose 1 mg/kg, route oral; details: in vivo
[42] = Clearance in monkey plasma at 0.3 mg/kg, iv; type: ADME, organism-based, Macaca mulatta; details: rhesus monkey
[43] = Tmax in dog at 1 mg/kg, po; type: ADME, organism-based, Canis lupus familiaris; details: in vivo
[44] = target: T2, Bromodomain testis-specific protein (Homo sapiens, UniProt Q58F21); test: Inhibition of BRDT BD1 (unknown origin) after 1 hr by TR-FRET assay
[45] = Volume of drug distribution in monkey at 0.3 mg/kg, iv; type: ADME, organism-based, Macaca mulatta; details: rhesus monkey, in vivo, read-out: Vdss
[46] = Fraction of drug absorbed in mouse portal vein in dog at 1 mg/kg, po; type: ADME, organism-based, Canis lupus familiaris; details: in vivo
[47] = Fraction of drug absorbed in mouse portal vein in monkey at 1 mg/kg, po; type: ADME, organism-based, Macaca mulatta; details: rhesus monkey, in vivo
[48] = Tmax in mouse at 1 mg/kg, po; type: ADME, organism-based; details: in vivo
[49] = Fraction of drug absorbed in mouse portal vein in rat at 1 mg/kg, po; type: ADME, organism-based; details: in vivo
[50] = Half life in monkey at 0.3 mg/kg, iv; type: ADME, organism-based, Macaca mulatta; details: rhesus monkey, in vivo
[51] = Cmax in monkey at 1 mg/kg, po; type: ADME, organism-based, Macaca mulatta; parameters: dose 1 mg/kg, route oral; details: rhesus monkey, in vivo
[52] = Fraction of drug absorbed in mouse portal vein in mouse at 1 mg/kg, po; type: ADME, organism-based; details: in vivo
[53] = Cmax in rat at 1 mg/kg, po; type: ADME, organism-based; parameters: dose 1 mg/kg, route oral; details: in vivo
[54] = target: T2, Bromodomain testis-specific protein; test: Inhibition of BRDT BD2 (unknown origin) after 1 hr by TR-FRET assay
[55] = Half life in monkey at 0.3 mg/kg, po; type: ADME, organism-based, Macaca mulatta; details: rhesus monkey, in vivo
[56] = Cmax in mouse at 1 mg/kg, po; type: ADME, organism-based; parameters: dose 1 mg/kg, route oral; details: in vivo
[57] = AUC in monkey at 0.3 mg/kg, iv; type: ADME, organism-based, Macaca mulatta; details: rhesus monkey, in vivo

Compound: CCS(=O)(=O)Nc1ccc(Oc2ccc(F)cc2F)c(-c2cn(C)c(=O)c3[nH]ccc23)c1
inhibition [37]: Active

Compound: CCNC(=O)c1cc2c(-c3cc(S(=O)(=O)CC)ccc3Oc3c(C)cccc3C#N)cn(C)c(=O)c2[nH]1
Papp [3]: 153 nm/s
pKi [5]: 8.49
CL free [9]: 49 L/h/kg
pIC50 [16]: 6.14
CL free [20]: 92 L/h/kg
pIC50 [25]: 7.43
CL free [27]: 41 L/h/kg
pKi [29]: 7.16

Compound: CCNC(=O)c1cc2c(-c3cc(C(C)(C)O)ccc3Oc3c(C)cccc3C)cn(C)c(=O)c2[nH]1
Papp [3]: 63 nm/s
pKi [5]: 9.22
CL free [9]: 170 L/h/kg
pIC50 [16]: 5.92
CL free [20]: 65 L/h/kg
pIC50 [25]: 7.96
CL free [27]: 37 L/h/kg
pKi [29]: 6.80

Compound: CCNC(=O)c1cc2c(-c3cc(C(C)(C)O)ccc3Oc3c(C)cc(F)cc3C)cn(C)c(=O)c2[nH]1 [ABBV-744]
Tmax [38]: 7.5 min
half-life [1]: 2.9 h
AUC [39]: 0.014 µg·h/mL
half-life [2]: 2.8 h
Tmax [40]: 1.5 h
Cmax [41]: 0.116 µg/mL
Papp [3]: 20 nm/s
clearance [42]: 1.54 L/h/kg
clearance [6]: 0.67 L/h/kg
Tmax [43]: 2.8 h
bioavailability [7]: 24%
CL free [9]: 45 L/h/kg
half-life [10]: 3.4 h
pKi [44]: 6.04
Vd [45]: 3.4 L/kg
FaFg [46]: 87
FaFg [47]: 19
half-life [11]: 4.4 h
bioavailability [12]: 77%
Tmax [48]: 6 min
Vd [13]: 5.3 L/kg
FaFg [49]: 52
half-life [50]: 2 h
Cmax [51]: 0.005 µg/mL
pIC50 [16]: 5.80
FaFg [52]: 81
AUC [19]: 0.46 µg·h/mL
CL free [20]: 12 L/h/kg
AUC [21]: 3.8 µg·h/mL
Cmax [53]: 0.012 µg/mL
half-life [22]: 3 h
pKi [54]: 9.00
half-life [55]: 2.5 h
AUC [23]: 2.35 µg·h/mL
Vd [24]: 1.5 L/kg
pIC50 [25]: 8.17
half-life [26]: 4.2 h
CL free [27]: 8.6 L/h/kg
bioavailability [28]: 58%
Cmax [56]: 0.21 µg/mL
clearance [30]: 0.29 L/h/kg
Vd [31]: 1.3 L/kg
AUC [32]: 1.05 µg·h/mL
AUC [33]: 0.5 µg·h/mL
AUC [34]: 0.12 µg·h/mL
bioavailability [35]: 7%
AUC [57]: 0.2 µg·h/mL
clearance [36]: 0.24 L/h/kg

Compound: CCNC(=O)c1cc2c(-c3cc(S(=O)(=O)CC)ccc3Oc3c(C)cccc3Br)cn(C)c(=O)c2[nH]1
Papp [3]: 105 nm/s
pKi [5]: 9.00
CL free [9]: 113 L/h/kg
pIC50 [16]: 6.14
CL free [20]: 81 L/h/kg
pIC50 [25]: 8.01
CL free [27]: 16 L/h/kg
pKi [29]: 7.35

The remaining molecules from weak to strong by pIC50 [16], led by results:

Papp [3]: 35.9 nm/s
pKi [5]: 8.37
CL free [9]: 29 L/h/kg
pIC50 [16]: 5.44
CL free [20]: 26 L/h/kg
pIC50 [25]: 7.17
CL free [27]: 7 L/h/kg
pKi [29]: 6.60
Compound: CCNC(=O)c1cc2c(-c3cc(S(C)(=O)=O)ccc3Nc3c(C)cccc3C)cn(C)c(=O)c2[nH]1

half-life [1]: 1.4 h
half-life [2]: 1 h
Papp [3]: 76.8 nm/s
half-life [4]: 1.5 h
pKi [5]: 8.96
clearance [6]: 2.71 L/h/kg
bioavailability [7]: 7%
CL free [8]: 32 L/h/kg
CL free [9]: 42 L/h/kg
half-life [10]: 1 h
half-life [11]: 3.7 h
bioavailability [12]: 74%
Vd [13]: 3.5 L/kg
Vd [14]: 2.3 L/kg
AUC [15]: 0.089 µg·h/mL
pIC50 [16]: 6.35
clearance [18]: 1.2 L/h/kg
AUC [19]: 0.291 µg·h/mL
CL free [20]: 64 L/h/kg
AUC [21]: 1.44 µg·h/mL
half-life [22]: 1 h
AUC [23]: 0.76 µg·h/mL
Vd [24]: 1.7 L/kg
pIC50 [25]: 8.28
half-life [26]: 0.3 h
CL free [27]: 5.4 L/h/kg
bioavailability [28]: 53%
pKi [29]: 6.92
clearance [30]: 0.69 L/h/kg
Vd [31]: 0.8 L/kg
AUC [32]: 0.644 µg·h/mL
AUC [33]: 0.384 µg·h/mL
AUC [34]: 0.027 µg·h/mL
bioavailability [35]: 0%
clearance [36]: 0.34 L/h/kg
Compound: CCNC(=O)c1cc2c(-c3cc(S(=O)(=O)CC)ccc3Oc3c(C)cccc3C)cn(C)c(=O)c2[nH]1
inhibition [17]: Active

Papp [3]: 2.2 nm/s
pKi [5]: 9.10
CL free [9]: 79 L/h/kg
pIC50 [16]: 6.52
CL free [20]: 880 L/h/kg
pIC50 [25]: 8.77
CL free [27]: 11 L/h/kg
pKi [29]: 7.77
Compound: CCNC(=O)c1cc2c(-c3cc(NS(=O)(=O)CC)ccc3Oc3c(C)cccc3C)cn(C)c(=O)c2[nH]1
